Data from patent US10227290B2, “Glycosphingolipids for use in modulating immune responses” (The Regents of the University of California, priority 2012, dated 2019).

Assays:
[1] = test system: Peripheral blood mononuclear cells (PBMCs), CD3+Vα24+ NKT cells; assay: In vitro expansion of CD3+Vα24+ NKT cells from human PBMCs; type: cell-based; conditions: 13 days; 0.1 μg/ml KRN7000, 1 μg/ml α-GalCerBf, 1 μg/ml ceramideBf
Description: FIGS. 6A and 6B illustrate that α-GalCerBf binds human CD1d and activates human NKT cells in vitro. FIG. 6A: PBMCs were cultured for 13 days with 0.1 μg/mlKRN7000, 1 μg/ml α-GalCerBf, or 1 μg/ml ceramideBf. Dot plots show CD3^+Vα24^+NKT cells pre- and post-expansion. The data shown are representative of at least two individual experiments performed with six individual donors. FIG. 6B: Human NKT cells were purified after two rounds of expansion with 1 μg/ml α-GalCerBf and restimulated with 10 μg/ml α-GalCerBf in the presence or absence of control Ig or anti-Cd1d blocking antibodies. IFN-γ secretion was measured in supernatants 40-48 hours later. Data are representative of two independent experiments.
The capability of α-GalCerBf to stimulate freshly isolated NKT cells was determined. A first experiment was performed to determine whether Vα24^+ cells could be expanded in vitro with α-GalCerBf as previously described for KRN7000 (see, e.g., Rogers et al., J. Immunol. Meth. 285:197-214 (2004)). Peripheral blood mononuclear cells (PBMCs) were cultured with 0.1 μg/ml KRN7000, 1 μg/ml α-GalCerBf, or 1 μg/ml ceramideBf for 13 days. The presence of CD3 Vα24^+ cells was then assessed by flow cytometry. At least two individual experiments performed with six individual donors. […] IFN-γ secretion was measured in supernatants 40-48 hours later.

[2] = test system: liver NKT cells; assay: In vivo activation of NKT cells by transfer of sphingolipid-pulsed BMDCs; set-up: species or system C57BL/6 mice; conditions: without re-stimulation; BMDCs pulsed with α-GalCerBf
Description: FIGS. 7A-7F illustrate that α-GalCerBf activates NKT cells in vivo. Bone marrow-derived dendritic cells (BMDCs) were pulsed in vitro with LPS only or LPS+α-GalCerBf for 24 hr. Then 0.4×10^6 cells were treated with control Ig or anti-CD1d blocking antibody and then transferred to WT mice. Liver mononuclear cells were analyzed 16-18 hr later. Data shown were pooled from three independent experiments. FIGS. 7A-7C: Expression of CD25 and CD69 on gated CD3^+tetramer^+ cells. Representative flow cytometry plots and pooled data showing fold change of CD25 and CD69 surface expression compared to NKT cells isolated from mice transferred with LPS-pulsed BMDCs. FIGS. 7D and 7E provide representative flow cytometry plots and pooled data, respectively, of intracellular IFN-γ expression on gated CD3^+ tetramer^+ cells. FIG. 7F presents serum IFN-γ levels. […]
Mice were sacrificed 16-18 hr after transfer of 0.4×10^6 mature CD86^hiMHCII^hi BMDCs. […] All isolations were performed in the presence of brefeldin A. After cell surface staining, cells were fixed in Cytofix/Cytoperm (BD Biosciences) according to the manufacturer's instructions and stained for intracellular cytokines Serum IFN-γ was measured by ELISA. […]
As described herein, because α-GalCerBf is an agonist of NKT cell hybridomas and freshly isolated NKT cells in culture, the capability of α-GalCerBf to activate NKT cells in vivo was determined. […]

[3] = test system: cyclophosphamide (CY) induced diabetes; assay: Cyclophosphamide-induced diabetes mouse model; type: in vivo, NOD mice; conditions: 25 μg intraperitoneally on days 0, 2, 4, 6, 8; diabetic = blood glucose above 250 mg/dL; 100% of DMSO controls diabetic
Description: FIG. 8 presents a graph illustrating the percent of animals that developed diabetes in a cyclophosphamide-induced diabetes mouse model. Groups of animals received DMSO only, α-GalCerBf, or KRN7000. Number of animals is represented by n. Mice were considered diabetic when blood glucose was above 250 mg/dL. Blood glucose levels were measured at the time point shown. Data are representative of three independent experiments. KRN7000 prevents cyclophosphamide (CY) induced diabetes in a Non-Obese Diabetic (NOD) mouse model (see, e.g., Sharif et al., Nat. Med. 7:1057-62 (2001)). Prevention of diabetes in this model is believed to be associated with suppression of T and B cell responses to islet antigens as well as a polarization towards TH2-like responses (see Sharif, supra). This example describes the effect of α-GalCerBf in the CY induced diabetes mouse model. Groups of twelve-week old NOD female mice were given 300 mg/kg cyclophosphamide intraperitoneally on day 0. Groups of mice received DMSO (n=4), or 25 μg α-GalCerBf (n=7) or 5 μg KRN7000 (n=3) diluted in DMSO intraperitoneally on days 0, 2, 4, 6, and 8. Diabetes progression was monitored by measuring blood glucose at each time point (see FIG. 8). […] Kaplan-Meier survival curves were determined by a log-rank test using Prism software.

Row | Compound | Expansion of a population of CD3+Vα24+ cells [1] | Liver NKT cells expressing IFN-γ [2] | Mice in which diabetes development was prevented [3]
1 | CC(C)CCCCCCCCCCC[C@@H](O)CC(=O)N[C@@H](CO)[C@H](O)CCCCCCCCCCCC(C)C [ceramideBf] | did not show an expansion |  | 
2 | CC(C)CCCCCCCCCCC[C@@H](O)CC(=O)N[C@@H](CO[C@H]1OC(CO)[C@H](O)[C@H](O)C1O)[C@H](O)CCCCCCCCCCCC(C)C (stereo partly drawn) [α-GalCerBf] |  | 15% | more than 40%
